We go through three molecules from BindingDB's records for patent US10301305 (Mutabilis, 2019).

What all share (assay): in vitro DltA activity assay
Assay [1] addresses T1, D-alanine--D-alanyl carrier protein ligase (Enterococcus faecalis (strain ATCC 700802 / V583), UniProt Q830N0).
T1 sequence (Q830N0 whole entry): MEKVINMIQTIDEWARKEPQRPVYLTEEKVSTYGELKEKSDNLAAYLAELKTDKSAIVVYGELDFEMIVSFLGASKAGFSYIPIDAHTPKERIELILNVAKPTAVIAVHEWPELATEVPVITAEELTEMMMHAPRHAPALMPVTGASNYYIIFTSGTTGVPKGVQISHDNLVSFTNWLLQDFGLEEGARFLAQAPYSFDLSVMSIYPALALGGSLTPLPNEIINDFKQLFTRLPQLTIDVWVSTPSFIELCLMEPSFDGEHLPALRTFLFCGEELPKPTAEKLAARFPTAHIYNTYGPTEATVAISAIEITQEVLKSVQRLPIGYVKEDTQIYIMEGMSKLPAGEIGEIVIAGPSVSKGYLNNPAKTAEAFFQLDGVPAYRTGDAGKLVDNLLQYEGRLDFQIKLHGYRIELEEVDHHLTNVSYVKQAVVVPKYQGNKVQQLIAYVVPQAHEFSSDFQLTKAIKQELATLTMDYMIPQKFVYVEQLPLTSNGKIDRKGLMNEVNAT
On the procedure:
(§1) The assay buffer AB contained 50 mM Hepes pH8.0, 10 mM MgCl2, 50 mM KCl, 0.012% Triton-X100, 10 mM DTT and 100 nM Myelin-basic protein. The following components were added in a white polystyrene Costar plate up to a final volume of 30 μL: 3 μL DMSO, or inhibitor dissolved in DMSO and 27 μL DltA enzyme in AB. After 30 min of pre-incubation at room temperature, 30 μL of Substrates mix in AB were added in each well to a final volume of 60 μL. This reaction mixture was then composed of DltA (produced in house from S. aureus, E. faecalis, E. faecium and S. agalactiae), 0.5 mM D-Alanine (Sigma), 0.5-5 μM ATP (Sigma) and 0.05 u/ml inorganic pyrophosphatase (Sigma) in assay buffer. After typically 1-2 hours of incubation at room temperature (conversion rate around 30%), 30 μL of the revelation mix were added to a final volume of 90 μL, including the following constituents at the respective final concentrations: 10000 u/ml luciferase (Sigma), 30 μM D-luciferin (Sigma), 100 μM N-acetylcysteamine (Aldrich). Luminescence intensity was immediately measured on a Fluostar Optima (BMG) (excitation 360 nm, emission 520 nm) and converted into inhibition percentages. For IC50 determinations (Inhibitory Concentration 50%) the inhibitor was added at 6 to 10 different concentrations and the related inhibitions were fitted to a classical Langmuir equilibrium model using XLFIT (IDBS).

The target in assay [2] is T2, D-alanine--D-alanyl carrier protein ligase (Enterococcus faecium (strain ATCC BAA-472 / TX0016 / DO), UniProt Q3XZT7).
T2 sequence (Q3XZT7 whole entry): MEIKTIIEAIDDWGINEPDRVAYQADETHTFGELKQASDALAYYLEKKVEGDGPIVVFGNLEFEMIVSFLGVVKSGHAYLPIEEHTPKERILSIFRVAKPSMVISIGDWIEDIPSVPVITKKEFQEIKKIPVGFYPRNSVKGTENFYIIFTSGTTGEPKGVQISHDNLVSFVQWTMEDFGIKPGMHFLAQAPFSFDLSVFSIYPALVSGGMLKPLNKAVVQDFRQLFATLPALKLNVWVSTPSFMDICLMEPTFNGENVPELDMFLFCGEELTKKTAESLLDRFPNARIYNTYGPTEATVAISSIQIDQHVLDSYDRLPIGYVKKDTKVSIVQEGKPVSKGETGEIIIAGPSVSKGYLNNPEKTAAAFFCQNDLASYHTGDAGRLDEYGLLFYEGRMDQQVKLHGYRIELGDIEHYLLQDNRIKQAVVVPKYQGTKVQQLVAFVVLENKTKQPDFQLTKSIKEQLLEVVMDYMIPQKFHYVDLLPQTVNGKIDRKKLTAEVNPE
The procedure: as §1

Assay [3] addresses T3, D-alanine--D-alanyl carrier protein ligase (Staphylococcus aureus, UniProt Q2FZW6).
T3 construct: gene dltA
The procedure: as §1

T3 sequence (Q2FZW6 whole entry, looked up): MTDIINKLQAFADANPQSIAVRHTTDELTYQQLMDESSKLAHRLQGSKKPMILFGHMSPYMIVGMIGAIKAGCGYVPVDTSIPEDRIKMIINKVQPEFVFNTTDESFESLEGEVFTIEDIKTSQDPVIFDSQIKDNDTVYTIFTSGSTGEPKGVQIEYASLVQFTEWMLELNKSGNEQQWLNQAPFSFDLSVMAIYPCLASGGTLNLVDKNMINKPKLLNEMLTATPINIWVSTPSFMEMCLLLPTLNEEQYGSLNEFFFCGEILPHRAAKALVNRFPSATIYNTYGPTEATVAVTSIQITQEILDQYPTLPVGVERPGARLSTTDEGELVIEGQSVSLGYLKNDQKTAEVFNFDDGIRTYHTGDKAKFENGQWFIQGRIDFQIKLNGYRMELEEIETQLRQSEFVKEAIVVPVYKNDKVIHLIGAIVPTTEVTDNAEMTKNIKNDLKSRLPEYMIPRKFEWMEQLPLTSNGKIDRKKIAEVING

The IC50 is the point on the concentration scale where inhibition reaches its midpoint. A lower IC50 goes with higher potency. As to `C[C@H]1CCCC(n2cnc3cc(-c4cc(N(C)CCN(C)C)c(C(N)=O)c5[nH]cnc45)ccc32)C1` (mixture of isomers), the IC50 was determined as 4.3 nM in assay [1] and 25 nM in assay [2].
Consider `CCn1cnc2cc(-c3cc(OCCN(C)C)c(C(N)=O)c4[nH]cnc34)ccc21` [US10301305, Example 198], for which the half-maximal inhibitory concentration (IC50) in assay [1] amounted to 8.3 nM; in assay [2], 73 nM; in assay [3], 6.8 nM.
`COc1cc(-c2ccc3c(c2)ncn3C2CCCCC2)c2nc[nH]c2c1C(N)=O` [US10301305, Example 88]: the 50% inhibitory concentration (IC50) came out at 26 nM in assay [1], 79 nM in assay [2] and 33 nM in assay [3].
